PubChem BioAssay AID1845199 (Molecular Pharmacology Branch, DTP, NCI, 2023)
“And” between values parts separate entries of the source, which are not always exact repeats. Equal values may be shown once.

Tested on: 556581-035-R-J1 tumor spheroid viability, % test/control
Assay: Anticancer human tumor 556581-035-R-J1 patient-derived ovarian carcinoma cell line growth inhibition
Details: spheroids with HUVEC and MSC; for viability, T/C: stronger effect = lower value
How it was run: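 Single agents and combinations were tested on spheroids built from tumor cells plus HUVEC and hMSC, at half-log dilutions starting at or near clinical Cmax, else 10 microM; final DMSO 0.25% (v/v).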
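Also: spheroids exposed to compounds for 7 days before viability read.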

## CNCc1ccc(-c2cc(-c3nc(-c4ccc(S(=O)(=O)C(C)C)cc4)cnc3N)on2)cc1 + COc1cc2c(cc1O)CCNC21CSC2c3c(OC(C)=O)c(C)c4c(c3C(COC1=O)N1C(O)C3Cc5cc(C)c(OC)c(O)c5C(C21)N3C)OCO4
Curve of first compound, second compound 30 pM
  IC50: 1.61 µM
Curve of first compound, second compound 94.9 pM
  IC50: 1.24 µM
Curve of first compound, second compound 0.0003 µM
  IC50: 0.725 µM
Curve of first compound, second compound 0.000949 µM
  IC50: < 0.00949 µM
Curve of first compound, second compound 0.003 µM
  IC50: < 0.00949 µM
Second compound 30 pM, first compound 0.00949 µM
  viability, T/C: 99.4%
Second compound 30 pM, first compound 0.03 µM
  viability, T/C: 108%
Second compound 30 pM, first compound 0.0949 µM
  viability, T/C: 108%
Second compound 30 pM, first compound 0.3 µM
  viability, T/C: 108%
Second compound 30 pM, first compound 0.949 µM
  viability, T/C: 69.4%
Second compound 30 pM, first compound 3 µM
  viability, T/C: 27.1%
Second compound 94.9 pM, first compound 0.00949 µM
  viability, T/C: 105%
Second compound 94.9 pM, first compound 0.03 µM
  viability, T/C: 102%
Second compound 94.9 pM, first compound 0.0949 µM
  viability, T/C: 105%
Second compound 94.9 pM, first compound 0.3 µM
  viability, T/C: 96.1%
Second compound 94.9 pM, first compound 0.949 µM
  viability, T/C: 61%
Second compound 94.9 pM, first compound 3 µM
  viability, T/C: 13.6%
Second compound 0.0003 µM, first compound 0.00949 µM
  viability, T/C: 94.4%
Second compound 0.0003 µM, first compound 0.03 µM
  viability, T/C: 97.1%
Second compound 0.0003 µM, first compound 0.0949 µM
  viability, T/C: 107%
Second compound 0.0003 µM, first compound 0.3 µM
  viability, T/C: 94.3%
Second compound 0.0003 µM, first compound 0.949 µM
  viability, T/C: 36.5%
Second compound 0.0003 µM, first compound 3 µM
  viability, T/C: 11%
Second compound 0.000949 µM, first compound 0.00949 µM
  viability, T/C: 28.1%
Second compound 0.000949 µM, first compound 0.03 µM
  viability, T/C: 38.3%
Second compound 0.000949 µM, first compound 0.0949 µM
  viability, T/C: 25.6%
Second compound 0.000949 µM, first compound 0.3 µM
  viability, T/C: 9.62%
Second compound 0.000949 µM, first compound 0.949 µM
  viability, T/C: 2.92%
Second compound 0.000949 µM, first compound 3 µM
  viability, T/C: 0.33%
Second compound 0.003 µM, first compound 0.00949 µM
  viability, T/C: 0.74%
Second compound 0.003 µM, first compound 0.03 µM
  viability, T/C: 0.64%
Second compound 0.003 µM, first compound 0.0949 µM
  viability, T/C: 0.49%
Second compound 0.003 µM, first compound 0.3 µM
  viability, T/C: 0.47%
Second compound 0.003 µM, first compound 0.949 µM
  viability, T/C: 0.42%
Second compound 0.003 µM, first compound 3 µM
  viability, T/C: 0.33%

## COc1ccc([C@@H](O)c2cc(-c3ncnc4cc(N5CCOCC5)ccc34)c(F)cc2Cl)nn1 + Cn1nnc2c(C(N)=O)ncn2c1=O
Curve of first compound, second compound 1 µM
  IC50: 2.65 µM
Curve of first compound, second compound 3.16 µM
  IC50: 2.55 µM
Curve of first compound, second compound 10 µM
  IC50: 3.06 µM
Curve of first compound, second compound 31.6 µM
  IC50: 2.81 µM
Curve of first compound, second compound 100 µM
  IC50: 3.03 µM
Second compound 1 µM, first compound 0.0316 µM
  viability, T/C: 115%
Second compound 1 µM, first compound 0.1 µM
  viability, T/C: 111%
Second compound 1 µM, first compound 0.316 µM
  viability, T/C: 100%
Second compound 1 µM, first compound 1 µM
  viability, T/C: 70.2%
Second compound 1 µM, first compound 3.16 µM
  viability, T/C: 47.7%
Second compound 1 µM, first compound 10 µM
  viability, T/C: 34.2%
Second compound 3.16 µM, first compound 0.0316 µM
  viability, T/C: 105%
Second compound 3.16 µM, first compound 0.1 µM
  viability, T/C: 114%
Second compound 3.16 µM, first compound 0.316 µM
  viability, T/C: 102%
Second compound 3.16 µM, first compound 1 µM
  viability, T/C: 71%
Second compound 3.16 µM, first compound 3.16 µM
  viability, T/C: 47.4%
Second compound 3.16 µM, first compound 10 µM
  viability, T/C: 36.2%
Second compound 10 µM, first compound 0.0316 µM
  viability, T/C: 126%
Second compound 10 µM, first compound 0.1 µM
  viability, T/C: 121%
Second compound 10 µM, first compound 0.316 µM
  viability, T/C: 113%
Second compound 10 µM, first compound 1 µM
  viability, T/C: 76%
Second compound 10 µM, first compound 3.16 µM
  viability, T/C: 51.9%
Second compound 10 µM, first compound 10 µM
  viability, T/C: 38.2%
Second compound 31.6 µM, first compound 0.0316 µM
  viability, T/C: 125%
Second compound 31.6 µM, first compound 0.1 µM
  viability, T/C: 123%
Second compound 31.6 µM, first compound 0.316 µM
  viability, T/C: 114%
Second compound 31.6 µM, first compound 1 µM
  viability, T/C: 76.9%
Second compound 31.6 µM, first compound 3.16 µM
  viability, T/C: 48.5%
Second compound 31.6 µM, first compound 10 µM
  viability, T/C: 36.2%
Second compound 100 µM, first compound 0.0316 µM
  viability, T/C: 129%
Second compound 100 µM, first compound 0.1 µM
  viability, T/C: 122%
Second compound 100 µM, first compound 0.316 µM
  viability, T/C: 117%
Second compound 100 µM, first compound 1 µM
  viability, T/C: 76.8%
Second compound 100 µM, first compound 3.16 µM
  viability, T/C: 51.6%
Second compound 100 µM, first compound 10 µM
  viability, T/C: 39.3%

## Cc1sc2c(c1C)C(c1ccc(Cl)cc1)=NC(CC(=O)Nc1ccc(O)cc1)c1nnc(C)n1-2 (configuration not stated)
Compound 0.00949 µM
  viability, T/C: 102% and 101% and 103%
Compound 0.03 µM
  viability, T/C: 98.1% and 83.8% and 103%
Compound 0.0949 µM
  viability, T/C: 82.5% and 90.3% and 88.8%
Compound 0.3 µM
  viability, T/C: 74.5% and 89.5% and 82.5%
Compound 0.949 µM
  viability, T/C: 71.8% and 76.6% and 76%
Compound 3 µM
  viability, T/C: 66.2% and 70.1% and 71.4%
Curve of compound
  IC50: > 3 µM
